We go through 6 molecules from PMC12920295, “Novel radiohybrid PET-Tracers for SST2-targeted imaging of neuroendocrine tumors” (European Journal of Nuclear Medicine and Molecular Imaging, 2025).

Read-outs that look alike come from different tables or passages of the source.

Series [1] has as its system AR42J cells. The series is described as follows: Internalization into AR42J cells relative to [125I]TOC. The class given is cell-based. Conditions: percentage compared to internal reference [125I]TOC. How it is done: AR42J cells (European Collection of Cell Cultures, Salisbury, UK) were grown in RPMI 1640 medium (with 2 mM, L-Glu, 10% FCS; v/v, 37 °C, 5% CO2), harvested 24 ± 2 h and seeded in 24-well poly-L-lysine plates (2.0 × 10^5 cells/well in 1 ml culture medium). After removal of the medium, the cells were washed with assay medium (300 µl, RPMI 1640 with 2 mM L-Glu, 5% BSA; v/v) and incubated in assay medium (200 µl, 15 min, 37 °C, 5% CO2). 25 µl of the ^18F-labeled ligand (20 nM) and [^125I]TOC (1 nM) in assay medium were added followed by either 25 µl TOC in assay medium (100 µM, competition experiment) or 25 µl of assay medium (internalization experiment). Cells were incubated at 37 °C for 15, 30, and 60 min (n = 3 per compound and time point), respectively, and chilled on ice. The supernatant was collected, the well washed with ice-cold RPMI 1640 (300 µl), and the two fractions combined (unbound ligand). The cells were incubated with acid wash solution (300 µl, 0.9% NaCl, 50 mM NaOAc/AcOH buffer, pH = 4.6, 15 min, 4 °C) to remove receptor-bound radioligand. The supernatant was collected, and the cells washed with 300 µl ice-cold acid wash solution (combined fractions: acid releasable, receptor bound ligand). The cells were lysed with NaOH solution (300 µl, 1 M, 15 min, RT), washed with 300 µl of the same solution, the two fractions combined (internalized ligand), and all activities quantified using a γ-counter.

Series [2] deals with T1, human serum albumin (HSA) (Homo sapiens, UniProt P02768).
T1 construct: purchased H13H-2433
The series is described as follows: HSA binding by high performance affinity chromatography (HPAC). It counts as in vitro ADME. Conditions: affinity to HSA by affinity chromatography (Chiralpak HSA column). How it is done:
For the determination of binding to human serum albumin (HSA) using HPLC, a Chiralpak HSA column (50 × 3 mm, 5 μm, H13H-2433) was used at a constant flow rate of 0.5 ml/min. The mobile phase (A: NH4OAc, 50 mM in H2O, pH 6.9 and B: iPrOH) was freshly prepared for each day.

The nature of series [3]: Lipophilicity LogDpH=7.4, shake flask method. It counts as physicochemical. Conditions: PBS (pH = 7.4)/n-octanol. The procedure: The LogDpH=7.4 was determined using a modified shake flask method as previously described.
Series [4] can be described thus: Biodistribution 1 h p.i. in AR42J xenograft bearing CD1 nu/nu mice. It counts as in vivo. Conditions: female, mouse, intravenous, total radioactivity, average ± Stdev. How it is done:
The 8-week-old female CD1 nu/nu mice were purchased from Charles River (Sulzfeld, Germany). Animal experiments were conducted according to general animal welfare regulations (German animal protection act, as amended on 18.05.2018, Art. 141 G v. 29.3.2017 I 626, approval no. 55.2-1.2-54–2532-71-13 by the General Administration of the Free State of Bavaria; Swiss animal welfare regulations: Animal Welfare Act SR 455, license: Canton de Vaud, 3781 d). To establish tumor xenografts, AR42J cells (5 × 10^6 cells in 100 µl serum-free culture medium) were inoculated subcutaneously onto the shoulder. Mice were used for experiments when tumors had grown to a diameter of 5–9 mm (7–15 days after inoculation).
Approximately 0.5–2.5 MBq (0.05–0.20 nmol) of the ^18F-labeled ligands were injected into the tail vein of AR42J xenograft-bearing mice under isoflurane anesthesia (1.5% alveolar concentration). The mice were sacrificed 1 h post injection (n = 3–5). Organs were removed, weighed, and the activity quantified (γ-counter).
An unpaired Welch’s t-test was applied using the GraphPad Prism software (version 10.1.2). Standard deviations for tumor-to-organ (T/O) ratios were calculated using the rules of error propagation. Thresholds for statistical significance are defined as: p > 0.05 (ns); p ≤ 0.05 (*); p ≤ 0.01 (**); p ≤ 0.001 (***); p ≤ 0.0001 (****).

T1 sequence (P02768 25-609): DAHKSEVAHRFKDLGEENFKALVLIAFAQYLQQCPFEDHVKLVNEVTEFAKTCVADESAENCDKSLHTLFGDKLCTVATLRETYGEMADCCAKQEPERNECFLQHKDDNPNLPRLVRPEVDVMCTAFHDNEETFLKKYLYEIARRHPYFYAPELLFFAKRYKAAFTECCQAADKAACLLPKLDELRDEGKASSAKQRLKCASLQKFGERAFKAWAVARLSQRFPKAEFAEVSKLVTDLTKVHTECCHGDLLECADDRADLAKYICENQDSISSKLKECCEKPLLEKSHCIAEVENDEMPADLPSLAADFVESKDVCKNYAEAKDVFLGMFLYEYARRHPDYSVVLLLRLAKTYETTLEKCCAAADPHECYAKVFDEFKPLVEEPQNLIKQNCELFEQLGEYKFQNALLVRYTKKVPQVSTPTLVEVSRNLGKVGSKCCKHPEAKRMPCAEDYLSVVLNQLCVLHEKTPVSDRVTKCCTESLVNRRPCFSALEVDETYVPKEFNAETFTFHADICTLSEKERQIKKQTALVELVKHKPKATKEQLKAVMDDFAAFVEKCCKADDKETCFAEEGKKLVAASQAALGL

In series [1], `C[C@@H](O)[C@H](NC(=O)[C@@H]1CSSC[C@H](NC(=O)[C@@H](Cc2ccccc2)NC(=O)CN2CCN(CC(=O)O)CCN(CC(=O)NCCCC[C@@H](NC(=O)[C@@H](CNC(=O)C[N+](C)(C)Cc3ccc([Si](F)(C(C)(C)C)C(C)(C)C)cc3)NC(=O)[C@@H](CCCNC(N)=O)NC(=O)[C@@H](CCCNC(N)=O)NC(=O)[C@H](N)CCCNC(N)=O)C(=O)O)CCN(CC(=O)O)CC2)C(=O)N[C@@H](Cc2ccc(O)cc2)C(=O)N[C@H](Cc2c[nH]c3ccccc23)C(=O)N[C@@H](CCCCN)C(=O)N[C@@H]([C@@H](C)O)C(=O)N1)C(=O)O` [[^18/natF][^natGa]rhTATE2.1, metal not drawn] showed an Internalization of 536%. For the same molecule, the “HSA HPAC” value in series [2] is recorded as 98.8%. In series [3] (mean of n = 8), the “LogDpH=7.4” value is given as −2.27.
As to `C[C@@H](O)[C@H](NC(=O)[C@@H]1CSSC[C@H](NC(=O)[C@@H](Cc2ccccc2)NC(=O)CN2CCN(CC(=O)O)CCN(CC(=O)NCCCC[C@@H](NC(=O)[C@@H](CNC(=O)C[N+](C)(C)Cc3ccc([Si](F)(C(C)(C)C)C(C)(C)C)cc3)NC(=O)[C@@H](CCCNC(N)=O)NC(=O)[C@@H](CCCNC(N)=O)NC(=O)[C@H](N)CCC(=O)O)C(=O)O)CCN(CC(=O)O)CC2)C(=O)N[C@@H](Cc2ccc(O)cc2)C(=O)N[C@H](Cc2c[nH]c3ccccc23)C(=O)N[C@@H](CCCCN)C(=O)N[C@@H]([C@@H](C)O)C(=O)N1)C(=O)O` [[^18/natF][^natGa]rhTATE2.2, metal not drawn], the Internalization in series [1] is reported as 550%. Further, the tissue uptake at 1 h in series [4] (adrenal glands, AR42J tumor-bearing CD1 nu/nu mice, read-out: Biodistribution Adrenal Glands) was 4.35 ± 0.69 %ID/g; in series [4] (blood, AR42J tumor-bearing CD1 nu/nu mice, read-out: Biodistribution Blood) it was 0.39 ± 0.19 %ID/g; in series [4] (femur, AR42J tumor-bearing CD1 nu/nu mice, read-out: Biodistribution Femur), 1.7 ± 0.45 %ID/g; in series [4] (heart, AR42J tumor-bearing CD1 nu/nu mice, read-out: Biodistribution Heart) it was 0.33 ± 0.01 %ID/g; in series [4] (intestine, AR42J tumor-bearing CD1 nu/nu mice, read-out: Biodistribution Intestine), 2.87 ± 0.15 %ID/g; in series [4] (kidney, AR42J tumor-bearing CD1 nu/nu mice, read-out: Biodistribution Kidney), 32.6 ± 3.5 %ID/g. Also, the tissue uptake at 1 h worked out at 2.43 ± 0.36 %ID/g in series [4] (liver, AR42J tumor-bearing CD1 nu/nu mice, read-out: Biodistribution Liver); 6.29 ± 0.65 %ID/g in series [4] (lung, AR42J tumor-bearing CD1 nu/nu mice, read-out: Biodistribution Lung); 0.06 ± 0.01 %ID/g in series [4] (muscle, AR42J tumor-bearing CD1 nu/nu mice, read-out: Biodistribution Muscle); 31.5 ± 2.32 %ID/g in series [4] (pancreas, AR42J tumor-bearing CD1 nu/nu mice, read-out: Biodistribution Pancreas); 1.31 ± 0.2 %ID/g in series [4] (spleen, AR42J tumor-bearing CD1 nu/nu mice, read-out: Biodistribution Spleen); 13.4 ± 1.6 %ID/g in series [4] (stomach, AR42J tumor-bearing CD1 nu/nu mice, read-out: Biodistribution Stomach). The tissue uptake at 1 h in series [4] (tumor (AR42J xenograft), AR42J xenograft, CD1 nu/nu mice, read-out: Biodistribution Tumor) is 27.9 ± 4.78 %ID/g. Also, in series [2], the “HSA HPAC” value was 94.3%. Further, the “LogDpH=7.4” value in series [3] (mean of n = 8) is listed as −2.30.
`C[C@@H](O)[C@H](NC(=O)[C@@H]1CSSC[C@H](NC(=O)[C@@H](Cc2ccccc2)NC(=O)CN2CCN(CC(=O)O)CCN(CC(=O)NCCCC[C@@H](NC(=O)[C@@H](CNC(=O)C[N+](C)(C)Cc3ccc([Si](F)(C(C)(C)C)C(C)(C)C)cc3)NC(=O)[C@@H](CN)NC(=O)[C@@H](CCC(=O)O)NC(=O)[C@H](N)CCC(=O)O)C(=O)O)CCN(CC(=O)O)CC2)C(=O)N[C@@H](Cc2ccc(O)cc2)C(=O)N[C@H](Cc2c[nH]c3ccccc23)C(=O)N[C@@H](CCCCN)C(=O)N[C@@H]([C@@H](C)O)C(=O)N1)C(=O)O` [[^18/natF][^natGa]rhTATE2.3, metal not drawn] yielded an Internalization in series [1] of 619%. The “HSA HPAC” value in series [2] came out at 96.0%. In addition, in series [3] (mean of n = 8), the “LogDpH=7.4” value is given as −2.12.
The matching figures for `C[C@@H](O)[C@H](NC(=O)[C@@H]1CSSC[C@H](NC(=O)[C@@H](Cc2ccccc2)NC(=O)CN2CCN(CC(=O)O)CCN(CC(=O)NCCCC[C@@H](NC(=O)[C@@H](CNC(=O)C[N+](C)(C)Cc3ccc([Si](F)(C(C)(C)C)C(C)(C)C)cc3)NC(=O)[C@@H](CCCCN)NC(=O)[C@@H](CCC(=O)O)NC(=O)[C@H](N)CCC(=O)O)C(=O)O)CCN(CC(=O)O)CC2)C(=O)N[C@@H](Cc2ccc(O)cc2)C(=O)N[C@H](Cc2c[nH]c3ccccc23)C(=O)N[C@@H](CCCCN)C(=O)N[C@@H]([C@@H](C)O)C(=O)N1)C(=O)O` [[^18/natF][^natGa]rhTATE2.4, metal not drawn]: 841%, 92.7% and −2.28.
On to `C[C@@H](O)[C@H](NC(=O)[C@@H]1CSSC[C@H](NC(=O)[C@@H](Cc2ccccc2)NC(=O)CN2CCN(CC(=O)O)CCN(CC(=O)NC[C@@H](NC(=O)C[N+](C)(C)Cc3ccc([Si](F)(C(C)(C)C)C(C)(C)C)cc3)C(=O)O)CCN(CC(=O)O)CC2)C(=O)N[C@@H](Cc2ccc(O)cc2)C(=O)N[C@H](Cc2c[nH]c3ccccc23)C(=O)N[C@@H](CCCCN)C(=O)N[C@@H]([C@@H](C)O)C(=O)N1)C(=O)O` [[^nat/18F][^natGa]rhTATE1, N-SiFAlin-N, N-Me2-Gly-D-Dap(trans-[^natGa]DOTA-TATE), metal not drawn], for which the “HSA HPAC” value in series [2] is listed as 95.4%. Also, the “LogDpH=7.4” value in series [3] (mean of n = 8) is reported as −1.03; in series [3] (mean of n = 8, listed as [^natGa]rhTATE1), -1.03.
Regarding `C[C@@H](O)[C@H](NC(=O)[C@@H]1CSSC[C@H](NC(=O)[C@@H](Cc2ccccc2)NC(=O)CN2CCN(CC(=O)O)CCN(CC(=O)NCCCC[C@@H](NC(=O)C[N+](C)(C)Cc3ccc([Si](F)(C(C)(C)C)C(C)(C)C)cc3)C(=O)O)CCN(CC(=O)O)CC2)C(=O)N[C@@H](Cc2ccc(O)cc2)C(=O)N[C@H](Cc2c[nH]c3ccccc23)C(=O)N[C@@H](CCCCN)C(=O)N[C@@H]([C@@H](C)O)C(=O)N1)C(=O)O` [[^nat/18F][^natGa]rhTATE2, N-SiFAlin-N, N-Me2-Gly-D-Lys(trans-[^natGa]DOTA-TATE), metal not drawn], the “HSA HPAC” value in series [2] is 94.5%. In series [3] (mean of n = 8), the “LogDpH=7.4” value is −1.19.
